How the values were obtained:
[1] = system: human embryonic lung (HEL) cells; conditions: Table 5
MCF-7 cells = test: Annexin V assay for apoptosis/necrosis detection; format: cell-based, human; conditions: MCF-7, after 48 h, versus control
hydroxy-HIF-1α (Pro564) = test: Western blot, hydroxy-HIF-1α in MCF-7 cells; format: cell-based, human; conditions: 0.08 μM, 24 and 48 h
NOS2 = test: Western blot, NOS2 in MCF-7 cells; format: cell-based, human; conditions: 0.08 μM, 24 and 48 h

| Structure (SMILES) | Cytotoxicity Cell morphology (MCC) [1] [μM] | also measured |
| --- | --- | --- |
| O=c1[nH]c(=O)n([C@H]2C[C@H](O)[C@@H](CO)O2)cc1/C=C/Br [Brivudin, reference compound] | >300 |  |
| COc1ccccc1-c1cn(C/C=C2\OC(=O)C(OCc3ccccc3)=C2OCc2ccccc2)nn1 [Compound 10h] | 100 |  |
| C[Si](C)(C)c1cn(C[C@H](O)[C@H]2OC(=O)C(OCc3ccccc3)=C2OCc2ccccc2)nn1 [Compound 8b, 2,3-O,O-dibenzyl-6-deoxy-6-(4-trimethylsilyl-1,2,3-triazol-1-yl)-L-ascorbic acid] | 100 |  |
| O=C1O[C@H]([C@@H](O)Cn2cc(C3CC3)nn2)C(OCc2ccccc2)=C1OCc1ccccc1 [Compound 8k, 2,3-O,O-dibenzyl-6-[4-cyclopropyl-1,2,3-triazol-1-yl]-6-deoxy-L-ascorbic acid] | 100 |  |
| O=C1O/C(=C\Cn2cc(-c3cc(F)cc(F)c3)nn2)C(OCc2ccccc2)=C1OCc1ccccc1 [Compound 10d] | 100 |  |
| CCCCc1cn(C[C@H](O)[C@H]2OC(=O)C(OCc3ccccc3)=C2OCc2ccccc2)nn1 [Compound 8l, 2,3-O,O-dibenzyl-6-(4-butyl-1,2,3-triazol-1-yl)-6-deoxy-L-ascorbic acid] | 20 |  |
| CC(C)(C)c1cn(C/C=C2\OC(=O)C(OCc3ccccc3)=C2OCc2ccccc2)nn1 [Compound 10n] | 100 |  |
| COc1ccc(-c2cn(C/C=C3\OC(=O)C(OCc4ccccc4)=C3OCc3ccccc3)nn2)cc1 [Compound 10g] | >100 |  |
| O=C1O/C(=C\Cn2cc(CCO)nn2)C(OCc2ccccc2)=C1OCc1ccccc1 [Compound 10p] | >100 |  |
| CC(C)(C)c1cn(C[C@H](O)[C@H]2OC(=O)C(OCc3ccccc3)=C2OCc2ccccc2)nn1 [Compound 8n, 2,3-O,O-dibenzyl-6-(4-tert-butyl-1,2,3-triazol-1-yl)-6-deoxy-L-ascorbic acid] | 100 |  |
| O=C1O/C(=C\Cn2cc(-c3ccc(Br)cc3)nn2)C(OCc2ccccc2)=C1OCc1ccccc1 [Compound 10e] | >100 |  |
| Cc1ccc(-c2cn(C/C=C3\OC(=O)C(OCc4ccccc4)=C3OCc3ccccc3)nn2)cc1 [Compound 10f] | 20 |  |
| CCCCCCCCCCc1cn(C[C@H](O)[C@H]2OC(=O)C(OCc3ccccc3)=C2OCc2ccccc2)nn1 [Compound 8m, 2,3-O,O-dibenzyl-6-(4-decyl-1,2,3-triazol-1-yl)-6-deoxy-L-ascorbic acid] | 20 | increase in late apoptotic cell population (MCF-7 cells): 24.7%; increase of necrotic cell populations (MCF-7 cells): 7.92%; hydroxylated HIF-1α levels (hydroxy-HIF-1α (Pro564)): significant increase; levels of NOS2 (NOS2): decreased levels |
| Nc1ccn(C[C@@H](CO)OCP(=O)(O)O)c(=O)n1.O.O [Cidofovir, reference compound] | >300 |  |

— publication PMC7115614 (European Journal of Medicinal Chemistry, 2019)
